What was measured:
Format in all cases: in vivo
kochia (Kochia scoparia) = assay: Test C preemergence; settings: for Plant response rating (0 to 100), Kochia: visual evaluation after 12 to 14 days
Method in brief: (§1)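 Visual injury scores of 0–100, with 100 meaning complete control, were given relative to controls after 12–14 days in the greenhouse. Treatments used a surfactant-containing non-phytotoxic solvent formulation, sprayed on seeded pots preemergence or on 1–4-leaf plants of 2–18 cm postemergence.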

Sunflower [1] = assay: Test C preemergence; settings: Rate 125 g/ha; scale 0 to 100, 0 no effect, 100 complete control
corn (Zea mays) [2] = assay: Test C preemergence; settings: for Plant response rating (0 to 100), Corn: visual evaluation after 12 to 14 days
Method in brief: as §1

[3] = tested on: morningglory (Ipomoea hederacea); assay: Test C preemergence; settings: for Plant response rating (0 to 100), Morningglory: Rate 500 g/ha, visual evaluation after 12 to 14 days
Method in brief: as §1

[4] = tested on: giant foxtail (Setaria faberii); assay: Test C preemergence; settings: for Plant response rating (0 to 100), Foxtail, Giant: visual evaluation after 12 to 14 days
Method in brief: as §1

[5] = tested on: velvetleaf (Abutilon theophrasti); assay: Test C preemergence; settings: for Plant response rating (0 to 100), Velvetleaf: Rate 500 g/ha, visual evaluation after 12 to 14 days
Method in brief: as §1

[6] = tested on: bermudagrass (Cynodon dactylon); assay: Test C preemergence; settings: for Plant response rating (0 to 100 where 0 is no effect and 100 is complete control), Bermudagrass: visual evaluation after 12 to 14 days
Method in brief: as §1

[7] = tested on: yellow nutsedge (Cyperus esculentus); assay: Test C preemergence; settings: for Plant response rating (0 to 100), Nutsedge: Rate 500 g/ha, visual evaluation after 12 to 14 days
Method in brief: as §1

[8] = tested on: johnsongrass (Sorghum halepense); assay: Test C preemergence; settings: for Plant response rating (0 to 100), Johnsongrass: visual evaluation after 12 to 14 days
Method in brief: as §1

Sunflower [9] = assay: Test C preemergence; settings: Rate 500 g/ha, visual evaluation after 12 to 14 days
[10] = tested on: Surinam grass (Brachiaria decumbens); assay: Test B postemergence; settings: 13 to 15 days
Method in brief: (§2)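 Pre: seeded pots sprayed, chemical in non-phytotoxic solvent/surfactant mix. Post: plants 2–18 cm, 1–4 leaf, same formulation. Greenhouse 13–15 d; visual % control vs untreated, 0–100 scale.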

corn (Zea mays) [11] = assay: Test B postemergence; settings: 13 to 15 days
Method in brief: as §2

[12] = tested on: morning glory (Ipomoea hederacea); assay: Test B postemergence; settings: 13 to 15 days
Method in brief: as §2

[13] = tested on: barnyardgrass (Echinochloa crus-galli); assay: Test B postemergence; settings: 13 to 15 days
Method in brief: as §2

[14] = tested on: crabgrass (Digitaria sanguinalis); assay: Test B postemergence; settings: 13 to 15 days
Method in brief: as §2

wild oat (Avena fatua) = assay: Test B postemergence; settings: 13 to 15 days
Method in brief: as §2

[15] = tested on: wheat (Triticum aestivum); assay: Test B postemergence; settings: 13 to 15 days
Method in brief: as §2

[16] = tested on: giant foxtail (Setaria faberii); assay: Test B postemergence; settings: 13 to 15 days
Method in brief: as §2

[17] = tested on: cocklebur (Xanthium strumarium); assay: Test B postemergence; settings: 13 to 15 days
Method in brief: as §2

[18] = tested on: blackgrass (Alopecurus myosuroides); assay: Test B postemergence; settings: 13 to 15 days
Method in brief: as §2

[19] = tested on: pigweed (Amaranthus retroflexus); assay: Test B postemergence; settings: 13 to 15 days
Method in brief: as §2

[20] = tested on: velvetleaf (Abutilon theophrasti); assay: Test B postemergence; settings: 13 to 15 days
Method in brief: as §2

[21] = tested on: lambsquarters (Chenopodium album); assay: Test B postemergence; settings: 13 to 15 days
Method in brief: as §2

[22] = Rate 125 g/ha, scale 0 to 100, 0 no effect, 100 complete control
[23] = preemergence, Rate 62 g/ha, scale 0 to 100
[24] = preemergence, Rate 250 g/ha, scale 0 to 100, 0 no effect, 100 complete control
[25] = Rate 125 g/ha, scale 0 (no effect) to 100 (complete control)
[26] = Rate 500 g/ha, scale 0 to 100, 0 is no effect, 100 is complete control

For `COc1cccc(N2CCC(n3ccc(C(C)(C)C)n3)C2=O)c1` (centres unmarked) [Compound 87], the “Plant response rating, Kochia” value (kochia (Kochia scoparia); [22]) was 100, the “Plant response rating, Kochia” value (kochia (Kochia scoparia); [23]) was 100 and the “Plant response rating (0 to 100), Kochia” value (kochia (Kochia scoparia); preemergence, Rate 250 g/ha) was 100. The “Plant response rating (0 to 100), Kochia” value (kochia (Kochia scoparia); preemergence, Rate 500 g/ha) was 100, the “Plant response rating, Sunflower” value (Sunflower [1]) was 20 and the “Plant response rating, Corn” value (corn (Zea mays) [2]; [22]) was 70. The “Plant response rating, Corn” value (corn (Zea mays) [2]; [23]) was 40, the “Plant response rating (0 to 100), Corn” value (corn (Zea mays) [2]; preemergence, Rate 250 g/ha) was 70 and the “Plant response rating (0 to 100), Corn” value (corn (Zea mays) [2]; preemergence, Rate 500 g/ha) was 80. For the same compound, the “Plant response rating, Morningglory” value [3, 22] was 0, the “Plant response rating, Morningglory” value [3, 23] was 0 and the “Plant response rating (0 to 100), Morningglory” value ([3]; preemergence) was 0. For the same compound, the “Plant response rating, Morningglory” value [3, 24] was 0, the “Plant response rating, Foxtail, Giant” value [4, 22] was 100 and the “Plant response rating, Foxtail, Giant” value [4, 23] was 30. For the same compound, the “Plant response rating (0 to 100), Foxtail, Giant” value ([4]; preemergence, Rate 250 g/ha) was 100, the “Plant response rating (0 to 100), Foxtail, Giant” value ([4]; preemergence, Rate 500 g/ha) was 100 and the “Plant response rating, Velvetleaf” value [5, 22] was 10. For the same compound, the “Plant response rating, Velvetleaf” value [5, 23] was 10, the “Plant response rating (0 to 100), Velvetleaf” value ([5]; preemergence) was 20 and the “Plant response rating, Velvetleaf” value [5, 24] was 10. The “Plant response rating, Bermudagrass” value [6, 22] was 100, the “Plant response rating, Bermudagrass” value [6, 23] was 100 and the “Plant response rating (0 to 100 where 0 is no effect and 100 is complete control), Bermudagrass” value ([6]; preemergence, Rate 250 g/ha) was 100. For the same compound, the “Plant response rating (0 to 100 where 0 is no effect and 100 is complete control), Bermudagrass” value ([6]; preemergence, Rate 500 g/ha) was 100, the “Plant response rating, Nutsedge” value [7, 22] was 20 and the “Plant response rating, Nutsedge” value [7, 23] was 20. For the same compound, the “Plant response rating (0 to 100), Nutsedge” value ([7]; preemergence) was 20, the “Plant response rating, Nutsedge” value [7, 24] was 20 and the “Plant response rating, Johnsongrass” value [8, 22] was 90. The “Plant response rating, Johnsongrass” value [8, 23] was 90, the “Plant response rating (0 to 100), Johnsongrass” value ([8]; preemergence, Rate 250 g/ha) was 100 and the “Plant response rating (0 to 100), Johnsongrass” value ([8]; preemergence, Rate 500 g/ha) was 100. The “Plant response rating (0 to 100), Sunflower” value (Sunflower [9]) was 30, the “Plant response rating, Surinam grass” value [10, 25] was 0 and the “Plant response rating, Surinam grass” value [10, 26] was 0. For the same compound, the “Plant response rating, Corn” value (corn (Zea mays) [11]; [25]) was 0, the “Plant response rating, Corn” value (corn (Zea mays) [11]; [26]) was 0 and the “Plant response rating, Morningglory” value [12, 25] was 0. The “Plant response rating, Morningglory” value [12, 26] was 0, the “Plant response rating, Barnyardgrass” value [13, 25] was 0 and the “Plant response rating, Barnyardgrass” value [13, 26] was 30. The “Plant response rating, Crabgrass” value [14, 25] was 0, the “Plant response rating, Crabgrass” value [14, 26] was 0 and the “Plant response rating, Wild Oat” value (wild oat (Avena fatua); [25]) was 0. The “Plant response rating, Wild Oat” value (wild oat (Avena fatua); [26]) was 0, the “Plant response rating, Wheat” value [15, 25] was 0 and the “Plant response rating, Wheat” value [15, 26] was 0. The “Plant response rating, Foxtail, Giant” value [16, 25] was 0, the “Plant response rating, Foxtail, Giant” value [16, 26] was 0 and the “Plant response rating, Cocklebur” value [17, 25] was 0. For the same compound, the “Plant response rating, Cocklebur” value [17, 26] was 0, the “Plant response rating, Blackgrass” value [18, 25] was 0 and the “Plant response rating, Blackgrass” value [18, 26] was 0. For the same compound, the “Plant response rating, Pigweed” value [19, 25] was 0, the “Plant response rating, Pigweed” value [19, 26] was 40 and the “Plant response rating, Velvetleaf” value [20, 25] was 0. For the same compound, the “Plant response rating, Velvetleaf” value [20, 26] was 0, the “Plant response rating, Lambsquarters” value [21, 25] was 0 and the “Plant response rating, Lambsquarters” value [21, 26] was 50.

For `COc1cc(N2CCC(n3ccc(C(C)C)n3)C2=O)ccc1C` (centres unmarked) [Compound 85], the “Plant response rating, Kochia” value (kochia (Kochia scoparia); [22]) was 100, the “Plant response rating, Kochia” value (kochia (Kochia scoparia); [23]) was 100 and the “Plant response rating (0 to 100), Kochia” value (kochia (Kochia scoparia); preemergence, Rate 250 g/ha) was 100. The “Plant response rating (0 to 100), Kochia” value (kochia (Kochia scoparia); preemergence, Rate 500 g/ha) was 100, the “Plant response rating, Sunflower” value (Sunflower [1]) was 70 and the “Plant response rating, Corn” value (corn (Zea mays) [2]; [22]) was 30. For the same compound, the “Plant response rating, Corn” value (corn (Zea mays) [2]; [23]) was 30, the “Plant response rating (0 to 100), Corn” value (corn (Zea mays) [2]; preemergence, Rate 250 g/ha) was 60 and the “Plant response rating (0 to 100), Corn” value (corn (Zea mays) [2]; preemergence, Rate 500 g/ha) was 80. The “Plant response rating, Morningglory” value [3, 22] was 90, the “Plant response rating, Morningglory” value [3, 23] was 50 and the “Plant response rating (0 to 100), Morningglory” value ([3]; preemergence) was 100. For the same compound, the “Plant response rating, Morningglory” value [3, 24] was 90, the “Plant response rating, Foxtail, Giant” value [4, 22] was 100 and the “Plant response rating, Foxtail, Giant” value [4, 23] was 60. The “Plant response rating (0 to 100), Foxtail, Giant” value ([4]; preemergence, Rate 250 g/ha) was 100, the “Plant response rating (0 to 100), Foxtail, Giant” value ([4]; preemergence, Rate 500 g/ha) was 100 and the “Plant response rating, Velvetleaf” value [5, 22] was 70. For the same compound, the “Plant response rating, Velvetleaf” value [5, 23] was 70, the “Plant response rating (0 to 100), Velvetleaf” value ([5]; preemergence) was 100 and the “Plant response rating, Velvetleaf” value [5, 24] was 80. The “Plant response rating, Bermudagrass” value [6, 22] was 100, the “Plant response rating, Bermudagrass” value [6, 23] was 100 and the “Plant response rating (0 to 100 where 0 is no effect and 100 is complete control), Bermudagrass” value ([6]; preemergence, Rate 250 g/ha) was 100. The “Plant response rating (0 to 100 where 0 is no effect and 100 is complete control), Bermudagrass” value ([6]; preemergence, Rate 500 g/ha) was 100, the “Plant response rating, Nutsedge” value [7, 22] was 70 and the “Plant response rating, Nutsedge” value [7, 23] was 50. The “Plant response rating (0 to 100), Nutsedge” value ([7]; preemergence) was 90, the “Plant response rating, Nutsedge” value [7, 24] was 70 and the “Plant response rating, Johnsongrass” value [8, 22] was 50. For the same compound, the “Plant response rating (0 to 100), Johnsongrass” value ([8]; preemergence, Rate 250 g/ha) was 80, the “Plant response rating (0 to 100), Johnsongrass” value ([8]; preemergence, Rate 500 g/ha) was 100 and the “Plant response rating (0 to 100), Sunflower” value (Sunflower [9]) was 70. The “Plant response rating, Surinam grass” value [10, 25] was 0, the “Plant response rating, Surinam grass” value [10, 26] was 0 and the “Plant response rating, Corn” value (corn (Zea mays) [11]; [25]) was 0. The “Plant response rating, Corn” value (corn (Zea mays) [11]; [26]) was 30, the “Plant response rating, Morningglory” value [12, 25] was 0 and the “Plant response rating, Morningglory” value [12, 26] was 80. For the same compound, the “Plant response rating, Barnyardgrass” value [13, 25] was 0, the “Plant response rating, Barnyardgrass” value [13, 26] was 50 and the “Plant response rating, Crabgrass” value [14, 25] was 20. For the same compound, the “Plant response rating, Crabgrass” value [14, 26] was 50, the “Plant response rating, Wild Oat” value (wild oat (Avena fatua); [25]) was 0 and the “Plant response rating, Wild Oat” value (wild oat (Avena fatua); [26]) was 20. For the same compound, the “Plant response rating, Wheat” value [15, 25] was 0, the “Plant response rating, Wheat” value [15, 26] was 0 and the “Plant response rating, Foxtail, Giant” value [16, 25] was 0. For the same compound, the “Plant response rating, Foxtail, Giant” value [16, 26] was 20, the “Plant response rating, Cocklebur” value [17, 25] was 40 and the “Plant response rating, Cocklebur” value [17, 26] was 100. The “Plant response rating, Blackgrass” value [18, 25] was 0, the “Plant response rating, Blackgrass” value [18, 26] was 20 and the “Plant response rating, Pigweed” value [19, 25] was 60. For the same compound, the “Plant response rating, Pigweed” value [19, 26] was 90, the “Plant response rating, Velvetleaf” value [20, 25] was 20 and the “Plant response rating, Velvetleaf” value [20, 26] was 50. For the same compound, the “Plant response rating, Lambsquarters” value [21, 25] was 30 and the “Plant response rating, Lambsquarters” value [21, 26] was 90.
